Measured values as given in patent US9403802B2, “Heterocyclic compound and use therefor” (Takeda Pharmaceutical Company Limited, priority 2012, dated 2016).

Tests used:
[1] = biological target: T1, human M1 receptor (hCHRM1) (Homo sapiens, UniProt P11229); test: Measurement of cholinergic muscarinic M1 receptor positive allosteric modulator (M1PAM) activity, calcium fluorescence (FLIPRtetra); type: cell-based; conditions: for activity (%) at 10 μM: test compound 10 μM with acetylcholine at EC20 (final 0.6 nM), CHO-K1 cells expressing hCHRM1, 100% = acetylcholine 1 μM, 0% = DMSO
T1 construct: expressed in transfected cells; host or cells: CHO-K1
T1 sequence (P11229 1-460): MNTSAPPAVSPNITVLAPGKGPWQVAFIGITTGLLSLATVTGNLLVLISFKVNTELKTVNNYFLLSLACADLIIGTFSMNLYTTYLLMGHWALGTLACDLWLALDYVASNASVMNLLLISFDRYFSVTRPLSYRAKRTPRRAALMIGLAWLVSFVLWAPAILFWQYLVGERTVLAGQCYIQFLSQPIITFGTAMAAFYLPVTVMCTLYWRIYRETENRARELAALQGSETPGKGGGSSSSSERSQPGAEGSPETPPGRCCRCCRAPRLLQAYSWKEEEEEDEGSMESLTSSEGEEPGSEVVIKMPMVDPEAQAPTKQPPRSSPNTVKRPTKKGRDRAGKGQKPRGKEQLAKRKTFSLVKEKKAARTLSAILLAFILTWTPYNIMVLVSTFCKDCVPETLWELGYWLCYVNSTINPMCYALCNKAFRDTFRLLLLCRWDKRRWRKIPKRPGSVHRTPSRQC
Experimental: The activity of a test compound in the presence of acetylcholine at EC20 concentration (final concentration 0.6 nM), which affords an action corresponding to 20% of the maximum activity, was measured as M1PAM activity. The method is as follows. CHO-K1 cells forcibly expressing a human M1 receptor (hCHRM1) were plated on a 384-well black clear bottom plate (BD Falcon) at 5,000 cells/well, and cultured in an incubator at 37° C., 5% CO2 for 1 day. The medium in the cell plate was removed, and assay buffer A (Recording medium (DOJINDO LABORATORIES), 0.1% bovine serum albumin (BSA) (Wako Pure Chemical Industries, Ltd.), 2.5 μg/mL Fluo-4 AM (DOJINDO LABORATORIES), 0.08% Pluronic F127 (DOJINDO LABORATORIES), 1.25 mM probenecid (DOJINDO LABORATORIES)) containing a calcium indicator was added at 30 μL/well. The cells were left standing in the incubator at 37° C., 5% CO2 for 30 min, and further left standing at room temperature for 30 min. A test compound prepared by diluting with assay buffer B (HBSS (Invitrogen), 20 mM HEPES (Invitrogen), 0.1% BSA) containing 2.4 nM acetylcholine was added at 10 μL/well, and the fluorescence was measured by FLIPRtetra (Molecular Devices) for 1 min every 1 second. With the definition that the amount of change in the fluorescence on addition of acetylcholine (final concentration 1 μM) is 100% and that on addition of DMSO instead of a test compound is 0%, the activity (%) of the test compound and the inflection point in the concentration-dependent curve of the test compound were calculated as IP values.

[2] = Central migration (Kp value) measurement test; type: in vivo; conditions: male, Jcl ICR, mouse, brain/plasma, mice, ratio of intracerebral (μg/g) to plasma (μg/mL) concentration; for Kp at 1 h: po, 1 mg/kg, 1 mg/10 mL/kg
Experimental: A. Compounds of Examples 6 and 10 (Intravenous Administration: i.v.) […]
animal: male Jcl ICR mice 7-week-old n=3 […]
administration conditions: intravenous administration 0.20 mg/l mL/kg (4 compounds/cassette administration) administration medium: N,N-dimethylacetamide (DMA)/1,3-Butanediol (1:1) sample: plasma, brain (homogenate was prepared by adding 4-fold amount of saline) plasma sampling time: 0.25 hr brain sampling time: 0.25 hr […]
animal: male Jcl ICR mice 8-week-old n=3 […]
administration medium: DMA/1,3-Butanediol (1:1) […]
plasma sampling time: 0.5 hr brain sampling time: 0.5 hr […]
column: Shimadzu Shim-pack XR-ODS (2.2 μm, 2.0×30 mm) mobile phase A: 10 mmol/L ammonium formate/formic acid (100:0.2, v/v) mobile phase B: acetonitrile/formic acid (100:0.2, v/v) […]
column temperature: 50° C. sample injection volume: 1 μL (Example 6), 2 μL (Example 10) plasma pre-treatment conditions: A standard solution dissolution solvent (DMSO) or a standard solution (5 μL) was added to a sample (50 μL). Acetonitrile (150 μL) containing the internal standard substance was added, and the mixture was vigorously stirred and centrifuged at 5250 rpm. A dilution solvent (160 μL) was added to the centrifuged supernatant (60 μL). The solution (40 μL) was taken, and the dilution solvent (160 μL) was added to give a sample solution for compound plasma concentration measurement (mobile phase A:mobile phase B=7:3 (v/v) was used as the dilution solvent). brain pre-treatment conditions: The standard solution dissolution solvent (DMSO) or standard solution (5 μL) was added to a sample (50 μL). Acetonitrile (150 μL) containing the internal standard substance was added, and the mixture was vigorously stirred, and centrifuged at 5250 rpm. A dilution solvent (160 μL) was added to the centrifuged supernatant (60 μL). The solution (40 μL) was taken, and the dilution solvent (160 μL) was added to give a sample solution for intracerebral compound concentration measurement (mobile phase A:mobile phase B=7:3 (v/v) was used as the dilution solvent). B. Compounds of Examples 92 and 94 (Oral Administration: p.o.) animal: male Jcl ICR mice 10-week-old n=3 feeding: nonfasting administration conditions: oral administration 1 mg/10 mL/kg (5 compounds/cassette administration) administration medium: 0.5% methylcellulose solution sample: plasma, brain (homogenate was prepared by adding 4-fold amount of saline) plasma sampling time: 1 hr brain sampling time: 1 hr HPLC Analysis Conditions column: Shimadzu Shim-pack XR-ODS (2.2 μm, 2.0×30 mm) mobile phase A: 10 mmol/L ammonium formate/formic acid (100:0.2, v/v) mobile phase B: acetonitrile/formic acid (100:0.2, v/v) flow rate: 0.7 mL/min. column temperature: 50° C. sample injection volume: 1 μL […]

Compound	EC50 [1]	activity (%) at 10 μM [1]	Kp at 0.25 h ([2]; iv, 0.2 mg/kg, 0.2 mg/1 mL/kg, sampling time 0.25 hr)	Kp at 0.5 h ([2]; iv, 0.2 mg/kg, 0.2 mg/1 mL/kg, sampling time 0.5 hr)	Kp at 1 h [2]
COc1ccc(Cn2cc(C(=O)N[C@H]3CCOC[C@@H]3O)c(=O)c3c(F)ccc(F)c32)cc1 (racemic) [Example 6, 1,5-anhydro-2,3-dideoxy-3-({[5,8-difluoro-1-(4-methoxybenzyl)-4-oxo-1,4-dihydroquinolin-3-yl]carbonyl}amino)-DL-threo-pentitol]	16 nM	98%	0.1	–	–
COc1ccc(Cn2cc(C(=O)N[C@H]3CCCC[C@@H]3O)c(=O)c3c(F)ccc(F)c32)cc1 (racemic) [Example 10, 5,8-difluoro-N-[(1,2-trans)-2-hydroxycyclohexyl]-1-(4-methoxybenzyl)-4-oxo-1,4-dihydroquinoline-3-carboxamide]	55 nM	103%	–	0.33	–
O=C(N[C@H]1CCC[C@@H]1O)c1cn(Cc2ccc(-n3cccn3)cc2)c2c(F)cccc2c1=O (racemic) [Example 92, 8-fluoro-N-[(1,2-trans)-2-hydroxycyclopentyl]-4-oxo-1-[4-(1H-pyrazol-1-yl)benzyl]-1,4-dihydroquinoline-3-carboxamide]	55 nM	104%	–	–	0.16
Cc1nn(C)cc1-c1ccc(Cn2cc(C(=O)N[C@H]3CCC[C@@H]3O)c(=O)c3ccccc32)cc1 (racemic) [Example 94, 1-[4-(1,3-dimethyl-1H-pyrazol-4-yl)benzyl]-N-[(1,2-trans)-2-hydroxycyclopentyl]-4-oxo-1,4-dihydroquinoline-3-carboxamide]	8.5 nM	95%	–	–	0.03
NC(=O)c1ccc(Cn2cc(C(=O)N[C@H]3CCCC[C@@H]3O)c(=O)c3ccccc32)cc1 [Example 78, 1-(4-carbamoylbenzyl)-N-[(1S,2S)-2-hydroxycyclohexyl]-4-oxo-1,4-dihydroquinoline-3-carboxamide]	2.2 nM	86%	–	–	–
